One may read the IC50 as the midpoint of a concentration-inhibition curve. Low values mean greater potency, high ones weaker potency. One may read the inhibition as the percentage by which the read-out fell short of the control. The term EC50 denotes the concentration needed to bring the measured effect to its halfway point. Higher therefore signals a less potent agent.

Structures are written as SMILES.

Data on 24 compounds can be found in patent publication US12637432B2, “Inhibitors of ACK1/TNK2 tyrosine kinase” (H. LEE MOFFITT CANCER CENTER AND RESEARCH INSTITUTE, INC., priority 2020, dated 2026).

For the first data set, the target named is T1, ACK1 (Homo sapiens, UniProt Q07912).
T1 construct: purchased Reaction Biology
T1 sequence (Q07912 whole entry): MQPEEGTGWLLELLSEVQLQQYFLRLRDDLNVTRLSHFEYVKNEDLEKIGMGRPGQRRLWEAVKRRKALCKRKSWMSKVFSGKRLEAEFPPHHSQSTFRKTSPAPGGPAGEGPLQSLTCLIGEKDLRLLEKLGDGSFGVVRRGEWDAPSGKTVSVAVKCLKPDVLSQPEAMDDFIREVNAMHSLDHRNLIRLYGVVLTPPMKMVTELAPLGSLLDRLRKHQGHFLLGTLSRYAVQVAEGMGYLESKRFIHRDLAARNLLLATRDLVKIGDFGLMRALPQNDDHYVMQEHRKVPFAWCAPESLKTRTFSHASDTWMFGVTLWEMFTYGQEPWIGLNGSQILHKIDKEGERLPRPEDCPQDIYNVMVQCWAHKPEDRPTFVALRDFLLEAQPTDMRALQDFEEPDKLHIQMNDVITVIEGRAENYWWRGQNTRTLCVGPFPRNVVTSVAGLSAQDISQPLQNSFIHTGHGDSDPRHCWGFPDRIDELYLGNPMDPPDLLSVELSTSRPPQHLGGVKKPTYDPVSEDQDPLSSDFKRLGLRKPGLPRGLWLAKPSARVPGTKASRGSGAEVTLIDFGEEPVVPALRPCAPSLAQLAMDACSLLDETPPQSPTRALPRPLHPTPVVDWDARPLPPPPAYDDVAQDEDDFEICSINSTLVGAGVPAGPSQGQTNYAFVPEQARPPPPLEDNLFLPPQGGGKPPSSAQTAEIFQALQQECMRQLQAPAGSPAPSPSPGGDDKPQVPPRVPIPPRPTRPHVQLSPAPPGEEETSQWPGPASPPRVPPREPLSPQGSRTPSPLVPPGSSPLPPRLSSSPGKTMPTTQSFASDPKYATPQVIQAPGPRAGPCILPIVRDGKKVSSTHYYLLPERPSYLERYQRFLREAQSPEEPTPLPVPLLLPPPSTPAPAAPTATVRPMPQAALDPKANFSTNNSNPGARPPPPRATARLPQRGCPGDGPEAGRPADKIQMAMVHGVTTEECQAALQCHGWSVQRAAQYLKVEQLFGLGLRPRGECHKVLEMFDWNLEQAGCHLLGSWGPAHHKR
The experiment in a line: ACK1 IC50 (Table 1, assay not specified). The data set is classed as biochemical.
Details: not given
Regarding `OCCn1cc(-c2ccc(Nc3ncc(Cl)c(NC[C@H]4CCCO4)n3)cc2F)cn1` [(R)-2-(4-(4-((5-chloro-4-(((tetrahydrofuran-2-yl)methyl)amino)pyrimidin-2-yl)amino)-2-fluorophenyl)-1H-pyrazol-1-yl)ethan-1-ol], it took 46.1 nM to reach half-maximal inhibition (IC50).
With `COCCn1cc(-c2ccc(Nc3ncc(Cl)c(NC[C@H]4CCCO4)n3)cc2F)cn1` [(R)-5-chloro-N^2-(3-fluoro-4-(1-(2-methoxyethyl)-1H-pyrazol-4-yl)phenyl)-N^4-((tetrahydrofuran-2-yl)methyl)pyrimidine-2,4-diamine], the IC50 stood at 137 nM.
In turn, `Fc1cc(Nc2ncc(Cl)c(NC[C@H]3CCCO3)n2)ccc1-c1cnn(C2CCOCC2)c1` [(R)-5-chloro-N^2-(3-fluoro-4-(1-(tetrahydro-2H-pyran-4-yl)-1H-pyrazol-4-yl)phenyl)-N^4-((tetrahydrofuran-2-yl)methyl)pyrimidine-2,4-diamine] gave an IC50 of 78.7 nM. Against the preceding compound, the IC50 is about 1.7-fold lower.
Still for that read-out and setting: under `Fc1cc(Nc2ncc(Cl)c(NC[C@H]3CCCO3)n2)ccc1OCCN1CCCC1` [(R)-5-chloro-N^2-(3-fluoro-4-(2-(pyrrolidin-1-yl)ethoxy)phenyl)-N^4-((tetrahydrofuran-2-yl)methyl)pyrimidine-2,4-diamine] stands 60.1 nM; under `Clc1cnc(Nc2ccc(OCCN3CCCC3)cc2)nc1NC[C@H]1CCCO1` [(R)-5-chloro-N^2-(4-(2-(pyrrolidin-1-yl)ethoxy)phenyl)-N^4-((tetrahydrofuran-2-yl)methyl)pyrimidine-2,4-diamine], 56.5 nM; under `O=C(COc1cccc2c1C(=O)N(C1CCC(=O)NC1=O)C2=O)NCCCCN1CCN(c2ccc(Nc3ncc(Cl)c(NC[C@H]4CCCO4)n3)cc2)CC1` (stereo partly drawn) [N-(4-(4-(4-((5-chloro-4-((((R)-tetrahydrofuran-2-yl)methyl)amino)pyrimidin-2-yl)amino)phenyl)piperazin-1-yl)butyl)-2-((2-(2,6-dioxopiperidin-3-yl)-1,3-dioxoisoindolin-4-yl)oxy)acetamide], 56.4 nM.

The next data set concerns the target T1, ACK1. Description: ACK1 ELISA % inhibition at 100 nM. The class given is biochemical.
Details: not given
A general note: An ELISA detects its analyte on a solid surface through an enzyme-linked reagent.
`COc1cc(N2CCN(C)CC2)ccc1Nc1ncc(Cl)c(NCc2ccc(C(F)(F)F)cc2)n1` [5-chloro-N^2-(2-methoxy-4-(4-methylpiperazin-1-yl)phenyl)-N^4-(4-(trifluoromethyl)benzyl)pyrimidine-2,4-diamine] had an inhibition at 0.1 µM of 31.1%.
In the case of `COc1cc(N2CCN(C)CC2)ccc1Nc1ncc(Cl)c(N(CCc2ccccc2)CC2CCCO2)n1` (stereo not shown) [5-chloro-N^2-(2-methoxy-4-(4-methylpiperazin-1-yl)phenyl)-N^4-phenethyl-N^4-((tetrahydrofuran-2-yl)methyl)pyrimidine-2,4-diamine], the inhibition at 0.1 µM was found to be 38.5%.
Same read-out and setting: the figure for `CN1CCN(c2ccc(Nc3ncc(Cl)c(N(CCc4ccccc4)CC4CCCO4)n3)cc2)CC1` (stereo not shown) [5-chloro-N^2-(4-(4-methylpiperazin-1-yl)phenyl)-N^4-phenethyl-N^4-((tetrahydrofuran-2-yl)methyl)pyrimidine-2,4-diamine] is 32%.
For the compound `COc1cc(N2CCN(C)CC2)ccc1Nc1ncc(Cl)c(N[C@H](C)c2ccc(Cl)cc2)n1` [(R)-5-chloro-N^4-(1-(4-chlorophenyl)ethyl)-N^2-(2-methoxy-4-(4-methylpiperazin-1-yl)phenyl)pyrimidine-2,4-diamine], testing at 0.1 µM gave an inhibition of 50.2%.
On the same count and under the same terms, the figure for `COc1cc(N2CCN(C)CC2)ccc1Nc1ncc(Cl)c(N[C@@H](C)c2ccc(Cl)cc2)n1` [(S)-5-chloro-N^4-(1-(4-chlorophenyl)ethyl)-N^2-(2-methoxy-4-(4-methylpiperazin-1-yl)phenyl)pyrimidine-2,4-diamine] is 17.5%; for `COc1cc(N2CCN(C)CC2)ccc1Nc1ncc(C)c(Nc2ccc(Cl)c(NS(=O)(=O)C(C)(C)C)c2)n1` [N-(2-chloro-5-((2-((2-methoxy-4-(4-methylpiperazin-1-yl)phenyl)amino)-5-methylpyrimidin-4-yl)amino)phenyl)-2-methylpropane-2-sulfonamide] it is 98.7%.
Same read-out and setting: the figure for `COc1cc(N2CCN(C)CC2)ccc1Nc1ncc(C)c(Nc2cccc(NS(=O)(=O)C(C)(C)C)c2)n1` [N-(3-((2-((2-methoxy-4-(4-methylpiperazin-1-yl)phenyl)amino)-5-methylpyrimidin-4-yl)amino)phenyl)-2-methylpropane-2-sulfonamide] is 100%.

The target in a further data set is T1, ACK1. The experiment in a line: Reaction Biology 33P Hotspot assay.
Details: not given
The data set is classed as biochemical.
`Cn1cc(-c2ccc(Nc3ncc(Cl)c(NCC4CCOCC4)n3)cc2)cn1` [5-chloro-N^2-(4-(1-methyl-1H-pyrazol-4-yl)phenyl)-N^4-((tetrahydro-2H-pyran-4-yl)methyl)pyrimidine-2,4-diamine] gave a concentration for half-maximal inhibition (IC50) of 29.1 nM.
The same measure, in the same setting: the figure for `CC[C@@H](Nc1nc(Nc2ccc(C3CCN(C)CC3)c(OC(C)C)c2)ncc1Cl)C1CCOCC1` [(R)-5-chloro-N^2-(3-isopropoxy-4-(1-methylpiperidin-4-yl)phenyl)-N^4-(1-(tetrahydro-2H-pyran-4-yl)propyl)pyrimidine-2,4-diamine] is 352 nM.
Same read-out and setting: the figure for `CC(C)Oc1cc(Nc2ncc(Cl)c(N[C@H](C)C3CCOCC3)n2)ccc1N1CCN(C)CC1` [(R)-5-chloro-N^2-(3-isopropoxy-4-(4-methylpiperazin-1-yl)phenyl)-N^4-(1-(tetrahydro-2H-pyran-4-yl)ethyl)pyrimidine-2,4-diamine] is 37 nM; for `COc1cc(Nc2ncc(Cl)c(NC[C@H]3CCCO3)n2)ccc1-c1cnn(C)c1` [(R)-5-chloro-N^2-(3-methoxy-4-(1-methyl-1H-pyrazol-4-yl)phenyl)-N^4-((tetrahydrofuran-2-yl)methyl)pyrimidine-2,4-diamine] it is 40.4 nM; for `Cn1cc(-c2ccc(Nc3ncc(Cl)c(NC[C@H]4CCCO4)n3)cc2)cn1` [(R)-5-chloro-N^2-(4-(1-methyl-1H-pyrazol-4-yl)phenyl)-N^4-((tetrahydrofuran-2-yl)methyl)pyrimidine-2,4-diamine] it is 128 nM.
Same read-out and setting: under `Clc1cnc(Nc2ccc(OCC3CCOCC3)cc2)nc1NC[C@H]1CCCO1` [(R)-5-chloro-N^2-(4-((tetrahydro-2H-pyran-4-yl)methoxy)phenyl)-N^4-((tetrahydrofuran-2-yl)methyl)pyrimidine-2,4-diamine] stands 69 nM; under `COc1cc(N2CCN(C)CC2)ccc1Nc1ncc(C)c(NCC2CCOCC2)n1` [N^2-(2-methoxy-4-(4-methylpiperazin-1-yl)phenyl)-5-methyl-N^4-((tetrahydro-2H-pyran-4-yl)methyl)pyrimidine-2,4-diamine], 34.5 nM; under `COc1cc(N2CCN(C)CC2)c(F)cc1Nc1ncc(C)c(NCC2CCOCC2)n1` [N^2-(5-fluoro-2-methoxy-4-(4-methylpiperazin-1-yl)phenyl)-5-methyl-N^4-((tetrahydro-2H-pyran-4-yl)methyl)pyrimidine-2,4-diamine], 14.7 nM.
`Cc1cnc(Nc2cc(F)c(C3CCN(C)CC3)c(F)c2)nc1Nc1ccc(Cl)c(OCC(C)C)c1` [N^4-(4-chloro-3-isobutoxyphenyl)-N^2-(3,5-difluoro-4-(1-methylpiperidin-4-yl)phenyl)-5-methylpyrimidine-2,4-diamine] had a 50% inhibitory concentration (IC50) of 181 nM.

The test system of another data set is UKE1. The experiment in a line: Cell viability (UKE1). The data set is classed as cell-based.
Details: not given
Take `Cn1cc(-c2ccc(Nc3ncc(Cl)c(NCC4CCOCC4)n3)cc2)cn1` [5-chloro-N^2-(4-(1-methyl-1H-pyrazol-4-yl)phenyl)-N^4-((tetrahydro-2H-pyran-4-yl)methyl)pyrimidine-2,4-diamine]: it took 6.7 µM to reach a half-maximal effect (EC50). This lies in the single-digit micromolar range.

In the next data set the test system is MDA-MB-231. The experiment in a line: Cell viability (MDA-MB-231). Particulars: Homo sapiens. The data set is classed as cell-based.
Turning to `Cn1cc(-c2ccc(Nc3ncc(Cl)c(NCC4CCOCC4)n3)cc2)cn1` [5-chloro-N^2-(4-(1-methyl-1H-pyrazol-4-yl)phenyl)-N^4-((tetrahydro-2H-pyran-4-yl)methyl)pyrimidine-2,4-diamine], the 50% effective concentration (EC50) came out at 7.72 µM.

Tested on in the next data set: not given
Experiment: not given
Particulars: attributed to oxidation of dithiolane ring and NMe2; cited from earlier work.
In the case of `CN(C)CCOc1ccc(-c2oc3ncnc(NCC4SCCS4)c3c2-c2ccccc2)cc1` [Compound 1c], the pharmacokinetic properties entry is “poor pharmacokinetic properties”.

The subject of a further data set is AKT Tyr176.
Experiment: not given
Particulars: pancreatic cancer cells; cited from earlier work.
Turning to `c1ccc(-c2oc3ncnc(NC[C@@H]4CCCO4)c3c2-c2ccccc2)cc1` [Compound 1b], the “ACK1 dependent AKT Tyr176 phosphorylation” value is “inhibits”.

In a further data set the test system is AR Tyr267.
Experiment: not given
The following applies: cited from earlier work.
With `c1ccc(-c2oc3ncnc(NC[C@@H]4CCCO4)c3c2-c2ccccc2)cc1` [Compound 1b], the “AR Tyr267 phosphorylation” value is “inhibits”.

In a further data set the test system is castration and radioresistant prostate xenograft tumor.
Experiment: not given
The following applies: in vivo; cited from earlier work.
With `c1ccc(-c2oc3ncnc(NC[C@@H]4CCCO4)c3c2-c2ccccc2)cc1` [Compound 1b], the “castration and radioresistant prostate xenograft tumor growth” value is recorded as “inhibits”.
